In article PMC5342071, “A first generation inhibitor of human Greatwall kinase, enabled by structural and functional characterisation of a minimal kinase domain construct” (Oncotarget, 2016):

Assays:
HeLa cells [1] = assay: Immunofluorescence of p-ENSA (Ser67) in nocodazole-arrested HeLa cells; assay type: cell-based, human
Text: To more directly address the presence of other off-target effects, and / or any level of compound toxicity, we conducted a more comprehensive phenotypic analysis of GKI-1 and GWL siRNA (siGWL, Figure 5A) treated cells by immunofluorescence (IF) and time-lapse video microscopy. Using an antibody that specifically detects phosphorylation of ENSA-Ser67 (p-ENSA), we established an IF assay in order to measure GWL kinase activity in HeLa cells. We treated the cells with nocodazole in order to arrest cells in mitosis, the cell cycle stage where GWL is maximally active (Figure 5B).
Figure 5 In cellulo efficacy of GKI-1 in HeLa cells A. HeLa cells were transfected with either non-targeting (siSCR) or GWL targeting siRNAs (siGWL). GWL and loading control protein (Tubulin) were detected by western analysis. B., C. HeLa cells treated with siSCR or siGWL (48-h) were arrested in mitosis using nocodazole and treated with DMSO, 25 μM or 50 μM GKI-1. […] (C) Quantitation of the IF p-ENSA and GWL signals was performed using the ScanR High-Content Screening Station. […] Time-lapse videos were generated using ImageJ and cellular phenotypes recorded: Mitotic events (D), mitotic arrest (E, F) and failed cytokinesis G. F. Kymographs showing an example of typical phenotypes were generated by capturing images every 5 minutes for 80 minutes. […]
HeLa cells were plated on glass coverslips and then transfected with siRNAs using Lipofectamine RNAiMax [ThermoFisher Scientific]. […] Time-lapse videos for treated cells were recorded on an Olympus IX3 microscope fitted with an Ocra-Flash 4.0 CMOS camera [Hamatsu]. […]
hGWLFL, 100 µl of lysate was diluted 5-fold with IP buffer and combined with 3 µl anti-Flag M2 magnetic Dynabeads [Sigma-Aldrich] overnight at 4 °C. […] The reaction was stopped by adding SDS loading buffer and analysed by western blot: p-ENSA and GWL levels were detected using the anti-phospho(Ser67)-ENSA and anti-MASTL(GWL, Prestige) antibodies. Activity was measured as the p-ENSA/GWL ratio and % kinase activity was normalised to the DMSO control. […]

HeLa cells [2] = assay: Time-lapse video microscopy of HeLa cells; assay type: cell-based, human
Method: Figure 5 In cellulo efficacy of GKI-1 in HeLa cells A. HeLa cells were transfected with either non-targeting (siSCR) or GWL targeting siRNAs (siGWL). GWL and loading control protein (Tubulin) were detected by western analysis. B., C. HeLa cells treated with siSCR or siGWL (48-h) were arrested in mitosis using nocodazole and treated with DMSO, 25 μM or 50 μM GKI-1. Immunofluorescent staining of p-ENSA (Red) and GWL (Green) was achieved using anti-phospho(Ser67)-ENSA and anti-MASTL(GWL, RIPLY 74C) antibodies and DAPI was used to stain the nucleus (Blue). (C) Quantitation of the IF p-ENSA and GWL signals was performed using the ScanR High-Content Screening Station. The Circularity and Total DAPI parameters were used to identify mitotic cells. D., E. HeLa cells treated with siSCR or siGWL (48-h) were treated with DMSO, 25 or 50 μM GKI-1. 4-h after treatment, μ-slides were mounted onto an Olympus IX73 microscope, within a temperature-controlled 37°C chamber maintained at 5% CO2, and images were acquired every 5-min for 8.5-h. Time-lapse videos were generated using ImageJ and cellular phenotypes recorded: Mitotic events (D), mitotic arrest (E, F) and failed cytokinesis G. F. Kymographs showing an example of typical phenotypes were generated by capturing images every 5 minutes for 80 minutes. Image sequences were chosen to start just before mitotic entry. (B - G) A total of 3 - 5 biological replicates were completed per condition and the t-test statistical module of Prism 6.0 was used to determine p-values (ns (not statistically significant): P > 0.05; *: P ≤ 0.05; **: P ≤ 0.01; ***: P ≤ 0.001).
HeLa cells were plated on glass coverslips and then transfected with siRNAs using Lipofectamine RNAiMax [ThermoFisher Scientific]. 48 hours after treatment, cells to be used for immunofluorescence were treated with nocodozole and DMSO, or GKI-1. After fixing and staining with antibodies, cells were visualised with a ScanR High Content Screening Station [Olympus Life Science]. Time-lapse videos for treated cells were recorded on an Olympus IX3 microscope fitted with an Ocra-Flash 4.0 CMOS camera [Hamatsu]. […]
Immunofluorescence and Time-lapse video microscopy
2.5 X 105 HeLa cells were plated onto glass coverslips in a 6-well plate, or 4-well µ-slides [Ibidi GmbH] were seeded with 5 X 104 cells and then transfected with Qiagen AllStars negative control or Hs_MASTL_6 siRNAs (14) using Lipofectamine RNAiMax [ThermoFisher Scientific]. Media was exchanged with fresh media the next day. 48 hours after siRNA treatment, only cells to be used for immunofluorescence (IF) were treated with nocodazole (200 ng/mL) and DMSO or GKI-1 at the indicated concentration. For IF, cells were fixed, stained with primary mouse anti-GWL and rabbit anti-p-ENSA antibodies, secondary Alexa Fluor 647-conjugated anti-rabbit and Alexa Fluor 488-conjugated anti-mouse antibodies, DAPI and mounted onto glass microscope slides using Diamond Antifade Mountant [Molecular Probes, ThermoFisher Scientific]. Quantitation of IF images was performed using the ScanR High-Content Screening Station [Olympus Life Science] which acquired 220, 40x images per cover slip. Data were normalised against the AllStars negative control siRNA treated cells and values obtained from three biological replicates were reported as the mean ± 1 S.D. To assist with selecting mitotic cells, ScanR imaging software was utilised to gate for mitotic cells using the circularity factor and total […]
To produce time-lapse videos, after 48 hours and cell treatment with DMSO or compound (cells were treated with GKI-1 for 4-h before image acquisition) cells plated in 4-well µ-slides were imaged every 5 minutes for 8.5 hours on an Olympus IX73 microscope, using a 40 x 0.95NA air objective, and recorded on an Orca-Flash 4.0 CMOS camera [Hamatsu]. The computer program Fiji (http://www.fiji.sc/Fiji) was used to generate videos from […]
image sequence TIF files. […]

[3] = test system: 50 different protein kinases; assay: Kinase inhibition profiling against 50 protein kinases (University of Dundee); assay type: biochemical, human; conditions: 25 μM
Method: In order to gain a greater understanding of potential off-target interactions of GKI-1, we undertook more rigorous kinase inhibition profiling (International Centre for Kinase Profiling, University of Dundee) where GKI-1 was tested against 50 different protein kinases, carefully selected to provide representative sampling across the human kinome.
Figure S9. Kinase phylogeny vs GKI-1 inhibitory activity
Kinome render [Manning et al. (2002)] was used to generate a phylogenetic map with overlapping 25
µM GKI-1 inhibitory activity plotted against 50 kinases, carefully selected to represent the human
kinome. Illustration reproduced courtesy of Cell Signaling Technology, Inc. (www.cellsignal.com)
(1 picture or pasted object on this page, not shown here)

sensitivity of treated cells to fluorescent light (HeLa cells [2]; blue to green spectrum, live cell imaging): highly sensitive | off-target interactions in kinase panel [3]: several off-target interactions
SMILES: Clc1ccc(Nc2cccc(-c3cn[nH]c3)c2)cc1 [GKI-1, N-(4-chlorophenyl)-3-(1H-pyrazol-4-yl)aniline]
reduction in p-ENSA levels compared to control (HeLa cells [1]; 25 μM, nocodazole-arrested HeLa cells): 2 fold | p-ENSA signal (HeLa cells [1]; 50 μM, nocodazole-arrested HeLa cells): levels comparable to siGWL treated cells | levels of p-ENSA by immunofluorescence (HeLa cells [1]; co-incubation with nocodazole, 25 and 50 μM): dose-dependent decrease | mitotic events (HeLa cells [2]; 50 μM): effect comparable to siGWL treatment | time remaining in prometaphase/metaphase (HeLa cells [2]; 50 μM): two to six | mitotic events (HeLa cells [2]; 25 and 50 μM, vs scrambled control siRNA): general decrease in mitotic events | failure in cytokinesis (HeLa cells [2]; GKI-1 treated cells compared with GWL depletion): only rarely observed | mitotic progression (HeLa cells [2]; relative to SCR-treated cells): significant delay in mitotic progression
